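These data come from cells grown in 96-well plates and exposed to compound for 48 hours at five concentrations. GI50 marks 50% less growth.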 Calls of active or inactive are those of the source. Rule as the data show it: active = GI50 up to about 1.1 µM and inactive = higher.
Experiments:
Assay in all cases: NCI tumour cell line growth inhibition, 48 h
[1] = system: A549
[2] = system: UO-31
[3] = system: NCI-H522
[4] = system: K562
[5] = system: SW-620
[6] = system: RXF 393
[7] = system: OVCAR-3
[8] = system: A498
[9] = system: KM12
[10] = system: SK-MEL-2
[11] = system: OVCAR-4
[12] = system: OVCAR-8
[13] = system: M14
[14] = system: ACHN
[15] = system: SR

Measured: GI50

CCCCCOc1ccc(/C=N\c2ccc(CCc3ccc(/N=C/c4ccc(OCCCCC)cc4)cc3)cc2)cc1
inactive: [1] > 100 µM | [2] > 100 µM | [3] > 100 µM | [4] > 100 µM | [5] > 100 µM | [6] > 100 µM | [7] > 100 µM | [8] > 100 µM | [9] > 100 µM | [10] > 100 µM | [11] > 100 µM | [12] > 100 µM

Cc1ccccc1NC(=O)C(=O)CC(=O)C1CCOC1=O (stereo not drawn)
inactive: [1] > 100 µM | [2] > 100 µM | [13] > 100 µM | [3] > 100 µM | [4] > 100 µM | [5] > 100 µM | [6] > 100 µM | [7] > 100 µM | [8] > 100 µM | [14] > 100 µM | [9] > 100 µM | [10] > 100 µM | [11] > 100 µM | [12] > 100 µM

Cn1ccnc1C(c1nccn1C)C(C)(C)[N+](=O)[O-]
inactive: [1] > 100 µM | [13] > 100 µM | [3] > 100 µM | [4] > 100 µM | [5] > 100 µM | [6] > 100 µM | [7] > 100 µM | [15] > 100 µM | [8] > 100 µM | [14] > 100 µM | [9] > 100 µM | [10] > 100 µM | [11] > 100 µM | [12] > 100 µM

CCOC(=O)C(=O)CC(=O)C(Br)C(Br)c1ccc(Cl)cc1 (stereo not drawn)
inactive: [1] > 100 µM | [2] > 100 µM | [13] 21.8 µM | [3] 23.6 µM | [4] 17.6 µM | [5] 39.6 µM | [6] 30.4 µM | [7] 23.3 µM | [14] 36 µM | [9] 57.9 µM | [10] > 100 µM | [11] 65.9 µM | [12] 34.9 µM

C[s+]1c2ccccc2c2ccccc21
inactive: [1] > 100 µM | [2] 34.2 µM | [13] > 100 µM | [3] > 100 µM | [4] > 100 µM | [5] > 100 µM | [6] > 100 µM | [7] > 100 µM | [15] 92.5 µM | [14] > 100 µM | [9] > 100 µM | [10] > 100 µM | [11] > 100 µM | [12] > 100 µM

N=C(N)NS(=O)(=O)c1ccc(NC(=O)c2cccc3c(Nc4ccc(S(=O)(=O)N=C(N)N)cc4)c4ccccc4nc23)cc1
inactive: [1] 79.1 µM | [2] > 100 µM | [13] 50.8 µM | [3] 7.94 µM | [4] 5.98 µM | [5] 31.4 µM | [6] 99.1 µM | [7] 50.1 µM | [8] 47.4 µM | [14] 51.1 µM | [9] 33.4 µM | [10] > 100 µM | [11] 26.6 µM | [12] 32.3 µM

CCOC(=O)/C(=C\c1ccc(N(CCC#N)CCC#N)cc1C)NC(=O)/C=C/c1ccccc1
inactive: [1] > 100 µM | [2] > 100 µM | [13] > 100 µM | [3] > 100 µM | [4] > 100 µM | [5] > 100 µM | [6] > 100 µM | [7] > 100 µM | [8] > 100 µM | [14] > 100 µM | [9] > 100 µM | [10] > 100 µM | [12] > 100 µM

O=C1OC2C(O)COC2(O)C1(O)Cc1c[nH]c2ccccc12 (stereo not drawn)
inactive: [1] > 100 µM | [2] > 100 µM | [13] > 100 µM | [3] > 100 µM | [4] > 100 µM | [5] > 100 µM | [6] > 100 µM | [7] > 100 µM | [15] > 100 µM | [8] > 100 µM | [9] > 100 µM | [10] > 100 µM | [11] > 100 µM | [12] > 100 µM

CC(C)(C)/N=C\N(C=C(c1ccccc1)c1ccccc1)C1CCCCC1
inactive: [1] 81.3 µM | [4] 17.7 µM | [5] 36.3 µM | [6] 19.4 µM | [7] 29.8 µM | [15] 18 µM | [8] 23.3 µM | [14] 36.4 µM | [9] 36.2 µM | [10] 60.8 µM | [11] 39.4 µM | [12] 91.8 µM

Cn1ncc2c(Nc3ccc(Cl)cc3)c3ccccc3nc21
inactive: [1] 15.3 µM | [2] > 10 µM | [13] 14.8 µM | [3] 19.4 µM | [4] 16.2 µM | [5] 16.6 µM | [7] 18.7 µM | [15] 14.9 µM | [8] 14.8 µM | [14] 17 µM | [9] 18.7 µM | [10] 18.4 µM | [11] 12.4 µM | [12] 14.8 µM

Cc1cccc(C(C)C)c1NC(=O)C(=O)C(C(=O)c1ccccc1F)C1OC(=O)c2ccccc21 (stereo not drawn)
inactive: [1] 37.5 µM | [2] 16.8 µM | [13] 16.8 µM | [3] 13.8 µM | [4] 20.4 µM | [5] 24.5 µM | [6] 11.4 µM | [7] 14.4 µM | [8] 23.7 µM | [14] 36.4 µM | [9] 19.2 µM | [10] 15.7 µM | [11] 21.8 µM | [12] 16.5 µM

CC(O)CNC(=O)C(C)Oc1ccc(OCC2CCCCC2)cc1 (stereo not drawn)
inactive: [1] > 100 µM | [2] > 100 µM | [13] > 100 µM | [3] > 100 µM | [4] > 100 µM | [7] > 100 µM | [8] 20.7 µM | [14] > 100 µM | [9] > 100 µM | [10] > 100 µM | [11] > 100 µM | [12] > 100 µM

CCOC(=O)COc1ccc(OC)c2c1C(=O)CCC2
inactive: [1] > 100 µM | [13] > 100 µM | [4] > 100 µM | [5] > 100 µM | [6] > 100 µM | [7] > 100 µM | [8] > 100 µM | [14] > 100 µM | [11] > 100 µM | [12] > 100 µM

CCN(CC)CCC(=O)NC1c2ccccc2Oc2c(C)cccc21 (stereo not drawn)
inactive: [1] > 100 µM | [2] 63.7 µM | [13] > 100 µM | [4] > 100 µM | [5] > 100 µM | [6] > 100 µM | [15] > 100 µM | [14] > 100 µM | [11] > 100 µM | [12] > 100 µM

COc1ccc2c(c1)[n+]([O-])c(C(=O)C/C(=N/NC(=O)c1ccccc1O)C(=O)Nc1ccc(Cl)c(C(F)(F)F)c1)c(C)[n+]2[O-]
inactive: [1] > 100 µM | [2] 20.7 µM | [13] 51.4 µM | [3] 39.6 µM | [4] 64.4 µM | [5] 62.1 µM | [6] > 100 µM | [7] 28.9 µM | [8] 53.8 µM | [14] 68.9 µM | [9] 89.1 µM | [10] > 100 µM | [11] 87.9 µM | [12] 43.8 µM

CCOC(=O)CC(NC(=O)c1nc[nH]c1/N=N/N(C)C)C(=O)OCC (stereo not drawn)
inactive: [1] > 100 µM | [2] > 100 µM | [13] > 100 µM | [3] > 100 µM | [4] > 100 µM | [5] > 100 µM | [7] > 100 µM | [15] > 100 µM | [8] > 100 µM | [14] > 100 µM | [9] > 100 µM | [10] > 100 µM | [11] > 100 µM | [12] > 100 µM

Cc1ccc(-c2nnc(SCC(=O)O)[nH]2)cc1
inactive: [1] > 100 µM | [2] > 100 µM | [13] > 100 µM | [3] > 100 µM | [4] > 100 µM | [5] > 100 µM | [7] > 100 µM | [15] > 100 µM | [8] > 100 µM | [14] > 100 µM | [9] > 100 µM | [10] > 100 µM | [11] > 100 µM | [12] > 100 µM

CC(C)(C)[Si](Nc1ccccc1)(c1ccccc1)c1ccccc1
inactive: [1] 13 µM | [2] 5.79 µM | [13] 14 µM | [3] > 10 µM | [4] 8.26 µM | [5] 17.4 µM | [6] 13.6 µM | [7] 14.3 µM | [8] 17.3 µM | [14] 16.2 µM | [9] 13.9 µM | [10] 18.4 µM | [11] 13.9 µM | [12] 17.7 µM

Clc1cccc(Cl)c1C1SCc2nc3ccccc3n21 (stereo not drawn)
inactive: [1] > 100 µM | [2] > 100 µM | [13] > 100 µM | [3] > 100 µM | [4] 10.7 µM | [5] 46.7 µM | [6] > 100 µM | [7] > 100 µM | [15] 5.38 µM | [8] > 100 µM | [14] > 100 µM | [9] > 100 µM | [11] 83.9 µM | [12] > 100 µM

Cn1cnc([N+](=O)[O-])c1Sc1nc2ccccc2[nH]1
inactive: [1] 19.4 µM | [2] 19.9 µM | [13] 24.2 µM | [4] 20.3 µM | [5] > 10 µM | [6] 11.4 µM | [7] 31.9 µM | [15] 10 µM | [8] 21.2 µM | [14] 22.8 µM | [9] 19.5 µM | [11] 33 µM | [12] 11.7 µM
